pIC50: −log10 of the molar value.
Legend:
[1] = Permeability of the compound at pH 7.4 by PAMPA; format: ADME
[2] = system: Hepatitis B virus; assay: Inhibition of HBV recombinant Cp149 expressed in Escherichia coli BL21 (DE3) assessed as inhibition of capsid assembly at 0.1 uM incubated for 1 hr by immune blotting analysis relative to control
[3] = Metabolic stability in rat liver microsomes assessed as compound remaining at […] incubated for 30 mins by LC/MS/MS analysis; format: ADME, Microsome; settings: read-out: Stabilty
[4] = system: Hepatitis B virus; assay: Inhibition of HBV recombinant Cp149 expressed in Escherichia coli BL21 (DE3) assessed as inhibition of capsid assembly at 1 uM incubated for 1 hr by immune blotting analysis relative to control
[5] = system: Hepatitis B virus; assay: Antiviral activity against Human hepatitis B virus in Huh-7 cells assessed as reduction in intracellular viral DNA level incubated for 36 hrs by qPCR analysis; format: functional, organism-based; settings: Huh-7, 36 h
[6] = Metabolic stability in human liver microsomes assessed as compound remaining at […] incubated for 30 mins by LC/MS/MS analysis; format: ADME, Microsome; settings: read-out: Stabilty
[7] = Metabolic stability in mouse liver microsomes assessed as compound remaining at […] incubated for 30 mins by LC/MS/MS analysis; format: ADME, Microsome; settings: read-out: Stabilty
[8] = system: Hepatitis B virus; assay: Inhibition of HBV recombinant Cp149 expressed in Escherichia coli BL21 (DE3) assessed as inhibition of capsid assembly at 10 uM incubated for 1 hr by immune blotting analysis relative to control
[9] = biological target: CYP2C19 (Homo sapiens, UniProt P33261); assay: Inhibition of human recombinant CYP2C19 using amitriptyline […] at 10 uM by fluorometric assay; format: ADME
[10] = biological target: T1, CYP1A2 (Homo sapiens, UniProt P05177); assay: Inhibition of human recombinant CYP1A2 using alpha-naphthoflavone […] at 10 uM by fluorometric assay; format: ADME
T1 sequence (P05177 whole entry): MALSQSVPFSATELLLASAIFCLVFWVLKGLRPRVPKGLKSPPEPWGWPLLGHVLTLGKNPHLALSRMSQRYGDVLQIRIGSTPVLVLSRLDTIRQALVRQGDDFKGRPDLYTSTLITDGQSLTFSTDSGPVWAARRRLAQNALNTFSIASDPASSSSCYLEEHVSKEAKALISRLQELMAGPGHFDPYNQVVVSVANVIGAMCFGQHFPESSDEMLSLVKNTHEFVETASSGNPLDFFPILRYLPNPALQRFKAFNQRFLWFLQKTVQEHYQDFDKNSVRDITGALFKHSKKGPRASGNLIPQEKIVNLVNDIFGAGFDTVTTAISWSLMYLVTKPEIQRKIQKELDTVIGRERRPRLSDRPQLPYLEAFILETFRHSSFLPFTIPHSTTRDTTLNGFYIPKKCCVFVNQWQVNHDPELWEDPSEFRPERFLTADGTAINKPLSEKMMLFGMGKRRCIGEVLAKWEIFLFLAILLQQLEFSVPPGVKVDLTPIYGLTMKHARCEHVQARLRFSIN

[11] = biological target: CYP3A4 (Homo sapiens, UniProt P08684); assay: Inhibition of human recombinant CYP3A4 using ketoconazole […] at 10 uM by fluorometric assay; format: ADME
[12] = biological target: CYP2C9 (Homo sapiens, UniProt P11712); assay: Inhibition of human recombinant CYP2C9 using sulfaphenazole […] at 10 uM by fluorometric assay; format: ADME
[13] = biological target: hERG (KCNH2) (Homo sapiens, UniProt Q12809); assay: Inhibition of human ERG at 40 uM incubated for 2 to 3 hrs by ligand binding assay
[14] = Mutagenicity in Salmonella typhimurium in presence of S9 fraction by Ames test; format: toxicity, subcellular; settings: salmonella enterica subsp. enterica serovar typhimurium
[15] = biological target: CYP2D6 (Homo sapiens, UniProt P10635); assay: Inhibition of human recombinant CYP2D6 using quinidine […] at 10 uM by fluorometric assay; format: ADME
CYP2D6, sequence (P10635 whole entry): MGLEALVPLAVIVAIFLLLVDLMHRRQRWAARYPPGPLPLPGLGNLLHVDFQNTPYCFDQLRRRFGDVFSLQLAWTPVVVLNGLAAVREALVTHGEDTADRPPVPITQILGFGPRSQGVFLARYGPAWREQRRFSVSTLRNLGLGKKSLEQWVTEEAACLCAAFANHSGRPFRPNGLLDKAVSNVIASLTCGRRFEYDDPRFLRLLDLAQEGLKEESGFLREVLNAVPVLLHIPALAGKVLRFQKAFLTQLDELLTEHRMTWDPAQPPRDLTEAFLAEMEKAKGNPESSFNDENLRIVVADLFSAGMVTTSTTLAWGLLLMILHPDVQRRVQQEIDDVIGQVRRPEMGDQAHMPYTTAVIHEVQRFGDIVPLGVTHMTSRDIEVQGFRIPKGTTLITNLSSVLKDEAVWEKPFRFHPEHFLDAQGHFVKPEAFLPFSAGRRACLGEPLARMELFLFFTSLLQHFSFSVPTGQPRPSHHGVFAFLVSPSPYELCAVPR

CYP2C19, sequence (P33261 whole entry): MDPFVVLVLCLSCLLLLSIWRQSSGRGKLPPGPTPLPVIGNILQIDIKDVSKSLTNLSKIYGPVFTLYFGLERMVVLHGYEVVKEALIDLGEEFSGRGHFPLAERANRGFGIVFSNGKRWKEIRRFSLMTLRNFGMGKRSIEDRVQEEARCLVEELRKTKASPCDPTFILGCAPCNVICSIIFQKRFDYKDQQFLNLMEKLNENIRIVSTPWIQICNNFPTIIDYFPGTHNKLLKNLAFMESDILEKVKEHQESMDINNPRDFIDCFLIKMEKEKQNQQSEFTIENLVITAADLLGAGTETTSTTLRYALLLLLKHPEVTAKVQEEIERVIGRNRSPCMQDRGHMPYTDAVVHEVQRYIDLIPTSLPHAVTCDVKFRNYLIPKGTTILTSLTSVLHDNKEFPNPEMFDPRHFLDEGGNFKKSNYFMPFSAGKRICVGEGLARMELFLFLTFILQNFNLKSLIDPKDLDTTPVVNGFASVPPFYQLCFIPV
CYP2C9, sequence (P11712 whole entry): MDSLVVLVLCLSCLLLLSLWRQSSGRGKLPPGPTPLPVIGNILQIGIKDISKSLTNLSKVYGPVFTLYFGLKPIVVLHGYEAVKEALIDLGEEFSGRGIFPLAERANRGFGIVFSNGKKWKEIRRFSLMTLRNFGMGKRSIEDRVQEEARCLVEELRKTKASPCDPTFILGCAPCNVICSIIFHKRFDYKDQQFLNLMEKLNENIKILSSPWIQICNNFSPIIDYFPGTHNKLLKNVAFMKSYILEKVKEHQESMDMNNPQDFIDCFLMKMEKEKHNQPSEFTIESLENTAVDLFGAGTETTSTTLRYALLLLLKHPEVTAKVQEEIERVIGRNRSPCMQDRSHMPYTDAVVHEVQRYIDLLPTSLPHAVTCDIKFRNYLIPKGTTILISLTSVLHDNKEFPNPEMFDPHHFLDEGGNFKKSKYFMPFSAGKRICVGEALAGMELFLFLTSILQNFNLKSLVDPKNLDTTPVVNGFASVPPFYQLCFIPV
CYP3A4, sequence (P08684 whole entry): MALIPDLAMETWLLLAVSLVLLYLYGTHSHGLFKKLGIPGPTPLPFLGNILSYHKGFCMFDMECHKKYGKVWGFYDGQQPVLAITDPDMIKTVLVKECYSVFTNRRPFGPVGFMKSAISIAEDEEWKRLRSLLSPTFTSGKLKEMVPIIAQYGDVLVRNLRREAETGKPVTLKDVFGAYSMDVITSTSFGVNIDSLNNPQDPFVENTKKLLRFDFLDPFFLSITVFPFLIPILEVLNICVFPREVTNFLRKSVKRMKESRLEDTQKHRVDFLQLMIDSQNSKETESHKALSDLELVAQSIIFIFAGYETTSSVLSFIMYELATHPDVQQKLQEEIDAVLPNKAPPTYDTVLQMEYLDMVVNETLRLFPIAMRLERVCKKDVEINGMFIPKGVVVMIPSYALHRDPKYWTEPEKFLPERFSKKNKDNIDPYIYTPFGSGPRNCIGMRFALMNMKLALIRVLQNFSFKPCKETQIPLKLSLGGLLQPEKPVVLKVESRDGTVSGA
hERG (KCNH2), sequence (Q12809 whole entry): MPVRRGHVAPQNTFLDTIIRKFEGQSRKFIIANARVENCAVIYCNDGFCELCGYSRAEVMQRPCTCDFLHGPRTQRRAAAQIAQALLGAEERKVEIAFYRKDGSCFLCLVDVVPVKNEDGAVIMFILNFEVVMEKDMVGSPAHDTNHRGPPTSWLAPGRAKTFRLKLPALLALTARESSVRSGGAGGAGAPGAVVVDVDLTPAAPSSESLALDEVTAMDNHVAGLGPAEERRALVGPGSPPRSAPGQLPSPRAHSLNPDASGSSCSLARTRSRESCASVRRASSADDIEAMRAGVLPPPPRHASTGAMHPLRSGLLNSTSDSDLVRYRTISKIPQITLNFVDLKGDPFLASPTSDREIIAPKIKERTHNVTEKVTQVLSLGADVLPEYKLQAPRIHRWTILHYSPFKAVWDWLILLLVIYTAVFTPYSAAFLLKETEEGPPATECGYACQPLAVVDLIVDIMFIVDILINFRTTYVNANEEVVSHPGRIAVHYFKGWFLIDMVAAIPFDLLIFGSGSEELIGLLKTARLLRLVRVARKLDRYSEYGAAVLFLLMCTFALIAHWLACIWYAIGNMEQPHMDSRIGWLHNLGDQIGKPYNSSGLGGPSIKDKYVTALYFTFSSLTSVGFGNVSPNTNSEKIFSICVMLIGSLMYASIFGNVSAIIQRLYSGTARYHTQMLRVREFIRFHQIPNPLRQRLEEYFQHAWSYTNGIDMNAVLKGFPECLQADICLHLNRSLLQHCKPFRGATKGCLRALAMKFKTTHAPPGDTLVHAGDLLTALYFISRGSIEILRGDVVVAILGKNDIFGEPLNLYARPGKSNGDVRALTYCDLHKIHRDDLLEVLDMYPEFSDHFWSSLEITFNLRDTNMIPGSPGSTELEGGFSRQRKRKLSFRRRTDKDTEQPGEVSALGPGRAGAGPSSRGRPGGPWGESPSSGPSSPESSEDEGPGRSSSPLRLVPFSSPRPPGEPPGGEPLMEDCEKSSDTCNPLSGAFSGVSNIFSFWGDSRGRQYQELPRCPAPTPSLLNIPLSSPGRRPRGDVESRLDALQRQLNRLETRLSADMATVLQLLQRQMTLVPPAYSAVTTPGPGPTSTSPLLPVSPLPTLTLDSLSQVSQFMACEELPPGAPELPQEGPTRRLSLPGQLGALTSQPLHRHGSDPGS

Structure (SMILES): CS(=O)(=O)c1nc(Nc2ccc(F)c(Cl)c2)cc(NC2CCNCC2)n1
- log(permeability) [1]: -5.46
- inhibition [2]: 59%
- remaining at 0.5 h [3]: 85.1%
- inhibition [4]: 95%
- pIC50 [5]: 6.70
- remaining at 0.5 h [6]: 92.9%
- remaining at 0.5 h [7]: 93.9%

Structure (SMILES): CSc1nc(NCCNC(=O)c2cccc(Cl)n2)cc(Nc2ccc(N3CCOCC3)cc2)n1
- inhibition [8]: 0%

Structure (SMILES): COc1ncccc1C(=O)NCCNc1cc(Nc2ccc(N3CCOCC3)cc2)nc(SC)n1
- remaining at 0.5 h [3]: 49%
- pIC50 [5]: < 5.00
- remaining at 0.5 h [6]: 58.8%
- remaining at 0.5 h [7]: 17.8%
- inhibition [8]: 23%

Structure (SMILES): CS(=O)(=O)c1nc(Nc2ccc(F)cc2)cc(Nc2ccc(F)cc2)n1
- remaining at 0.5 h [3]: 74.4%
- pIC50 [5]: 5.19
- remaining at 0.5 h [6]: 42.8%
- remaining at 0.5 h [7]: 37.7%
- inhibition [8]: 49%

Structure (SMILES): CCOC(=O)C1=C(CN2CCOCC2)NC(c2nccs2)=N[C@H]1c1ccc(F)cc1Br
- inhibition [2]: 49%
- inhibition [4]: 93%
- pIC50 [5]: 6.73

Structure (SMILES): COc1ncccc1C(=O)NCCNc1cc(Nc2ccccc2)nc([S+](C)[O-])n1 (stereo not given)
- inhibition [2]: 14%
- inhibition [4]: 83%
- pIC50 [5]: 6.32

Structure (SMILES): COc1ncccc1C(=O)N1CCN(c2cc(Nc3ccc(N4CCOCC4)cc3)nc(SC)n2)CC1
- pIC50 [5]: < 5.00
- inhibition [8]: 31%

Structure (SMILES): CS(=O)(=O)c1nc(Nc2cc(F)c(F)c(F)c2)cc(Nc2cc(F)c(F)c(F)c2)n1
- remaining at 0.5 h [3]: 99.9%
- pIC50 [5]: 5.99
- remaining at 0.5 h [6]: 99.9%
- remaining at 0.5 h [7]: 99.9%
- inhibition [8]: 69%

Structure (SMILES): CSc1nc(NCCNC(=O)c2cccnc2)cc(Nc2ccc(N3CCOCC3)cc2)n1
- pIC50 [5]: < 5.00
- inhibition [8]: 43%

Structure (SMILES): C[S+]([O-])c1nc(NCCNC(=O)c2cccnc2)cc(Nc2ccc(N3CCOCC3)cc2)n1 (stereo not given)
- pIC50 [5]: < 5.00
- inhibition [8]: 13%

Structure (SMILES): CS(=O)(=O)c1nc(Nc2ccc(F)c(Br)c2)cc(NC2CCC(N)CC2)n1 (stereo not given)
- inhibition [2]: 10%
- inhibition [4]: 98%
- pIC50 [5]: 6.32

Structure (SMILES): COc1ncccc1C(=O)NCCNc1cc(Nc2ccc(I)cc2)nc([S+](C)[O-])n1 (stereo not given)
- pIC50 [5]: < 5.00
- inhibition [8]: 37%

Structure (SMILES): CS(=O)(=O)c1nc(Nc2cc(F)c(F)c(F)c2)cc(NC2CCC(N)CC2)n1 (stereo not given)
- inhibition [2]: 29%
- inhibition [4]: 96%
- pIC50 [5]: 6.53

Structure (SMILES): COc1ncccc1C(=O)NCCNc1cc(Nc2ccc(N3CCOCC3)cc2)nc(S(C)(=O)=O)n1
- inhibition [2]: 49%
- inhibition [4]: 86%
- pIC50 [5]: 6.70

Structure (SMILES): COc1ncccc1C(=O)N1CCN(c2cc(Nc3ccc(N4CCOCC4)cc3)nc([S+](C)[O-])n2)CC1 (stereo not given)
- pIC50 [5]: < 5.00
- inhibition [8]: 33%

Structure (SMILES): CSc1nc(NCCNC(=O)c2ccc(Cl)nc2Cl)cc(Nc2ccc(N3CCOCC3)cc2)n1
- inhibition [8]: 5%

Structure (SMILES): COc1ncccc1C(=O)NCCNc1cc(Nc2ccc(Cl)cc2)nc([S+](C)[O-])n1 (stereo not given)
- inhibition [2]: 27%
- inhibition [4]: 80%
- pIC50 [5]: 6.52

Structure (SMILES): O=C1CC2(CCCC2)CC(=O)N1CCCCN1CCN(c2ncccn2)CC1 [BUSPIRONE]
- remaining at 0.5 h [3]: 0.528%
- remaining at 0.5 h [6]: 2.44%
- remaining at 0.5 h [7]: 0.906%

Structure (SMILES): COc1ncccc1C(=O)NCCNc1cc(Nc2ccc(N3CCOCC3)cc2)nc([S+](C)[O-])n1 (stereo not given)
- log(permeability) [1]: -5.47
- remaining at 0.5 h [3]: 77.1%
- inhibition at 10 µM [9]: 40.7%
- pIC50 [5]: 6.40
- inhibition at 10 µM [10]: 18.3%
- remaining at 0.5 h [6]: 93.4%
- remaining at 0.5 h [7]: 80.2%
- inhibition at 10 µM [11]: 51.7%
- inhibition [8]: 95%
- inhibition at 10 µM [12]: 42.9%

Structure (SMILES): COC(=O)C1=C(C)NC(c2ncc(F)cc2F)=N[C@H]1c1ccc(F)cc1Cl
- pIC50 [5]: 6.69
- inhibition [8]: 37%

Structure (SMILES): CS(=O)(=O)c1nc(Nc2ccc(F)c(Cl)c2)cc(N2CCNCC2)n1 [listing 1 of 2 here]
- inhibition [2]: 47%
- inhibition [4]: 90%

Structure (SMILES): CS(=O)(=O)c1nc(Nc2ccc(F)c(Cl)c2)cc(Nc2ccc(F)c(Cl)c2)n1
- remaining at 0.5 h [3]: 99.9%
- pIC50 [5]: 6.23
- remaining at 0.5 h [6]: 99.9%
- remaining at 0.5 h [7]: 92.9%
- inhibition [8]: 57%

Structure (SMILES): CSc1nc(NCCNC(=O)c2cccnc2Cl)cc(Nc2ccc(N3CCOCC3)cc2)n1
- inhibition [8]: 2%

Structure (SMILES): CS(=O)(=O)c1nc(Nc2ccc(F)c(Br)c2)cc(NC2CCNCC2)n1
- inhibition [2]: 7%
- inhibition [4]: 97%
- pIC50 [5]: 6.27

Structure (SMILES): COc1cncc(C(=O)NCCNc2cc(Nc3ccc(N4CCOCC4)cc3)nc(SC)n2)c1
- pIC50 [5]: 5.07
- inhibition [8]: 37%

Structure (SMILES): COc1ncccc1C(=O)NCCNc1cc(Nc2ccc(F)c(F)c2)nc([S+](C)[O-])n1 (stereo not given)
- pIC50 [5]: < 5.00
- inhibition [8]: 38%

Structure (SMILES): CS(=O)(=O)c1nc(Nc2ccc(F)c(Br)c2)cc(N2CCNCC2)n1
- inhibition [2]: 13%
- inhibition [4]: 98%
- pIC50 [5]: 6.26

Structure (SMILES): COc1ncccc1C(=O)NCCNc1cc(Nc2ccc(F)cc2)nc([S+](C)[O-])n1 (stereo not given)
- inhibition [2]: 32%
- inhibition [4]: 83%
- pIC50 [5]: 6.68

Structure (SMILES): CS(=O)(=O)c1nc(Nc2ccc(F)c(Cl)c2)cc(N2CCNCC2)n1 [listing 2 of 2 here]
- inhibition at 40 µM [13]: 14%
- Activity [14]: Non-Toxic
- log(permeability) [1]: -5.37
- inhibition at 10 µM [15]: 45.2%
- remaining at 0.5 h [3]: > 99%
- inhibition at 10 µM [9]: 41.2%
- pIC50 [5]: 6.72
- inhibition at 10 µM [10]: 57.4%
- remaining at 0.5 h [6]: > 99%
- remaining at 0.5 h [7]: > 99%
- inhibition at 10 µM [11]: 60.2%
- inhibition at 10 µM [12]: 64.8%

Structure (SMILES): COc1ncccc1C(=O)NCCNc1cc(Nc2ccc(Br)cc2)nc([S+](C)[O-])n1 (stereo not given)
- inhibition [2]: 27%
- inhibition [4]: 82%
- pIC50 [5]: 6.75

Structure (SMILES): CSc1nc(NCCNC(=O)c2ncc(F)cc2F)cc(Nc2ccc(N3CCOCC3)cc2)n1
- inhibition [8]: 1%

Structure (SMILES): CSc1nc(NCCNC(=O)c2cccnc2F)cc(Nc2ccc(N3CCOCC3)cc2)n1
- inhibition [8]: 0%

Structure (SMILES): COc1ncccc1C(=O)NCCNc1cc(Nc2ccc(F)cc2Cl)nc([S+](C)[O-])n1 (stereo not given)
- pIC50 [5]: < 5.00
- inhibition [8]: 43%

Structure (SMILES): CS(=O)(=O)c1nc(Nc2cc(F)c(F)c(F)c2)cc(NC2CCNCC2)n1
- log(permeability) [1]: <= -6
- inhibition [2]: 16%
- remaining at 0.5 h [3]: 98.2%
- inhibition [4]: 90%
- pIC50 [5]: 6.72
- remaining at 0.5 h [7]: 98.6%

Structure (SMILES): COc1cncc(C(=O)NCCNc2cc(Nc3ccc(N4CCOCC4)cc3)nc([S+](C)[O-])n2)c1 (stereo not given)
- inhibition [2]: 43%
- inhibition [4]: 83%
- pIC50 [5]: < 5.00
- inhibition [8]: 78%

Structure (SMILES): CS(=O)(=O)c1nc(Nc2cc(F)c(F)c(F)c2)cc(N2CCNCC2)n1
- inhibition at 40 µM [13]: 48.7%
- Activity [14]: Non-Toxic
- inhibition [2]: 39%
- inhibition at 10 µM [15]: 5.76%
- remaining at 0.5 h [3]: 87.9%
- inhibition [4]: 92%
- inhibition at 10 µM [9]: 93.4%
- pIC50 [5]: 6.69
- inhibition at 10 µM [10]: 23.6%
- remaining at 0.5 h [6]: 99.9%
- remaining at 0.5 h [7]: 99.8%
- inhibition at 10 µM [11]: 52.1%
- inhibition at 10 µM [12]: 85.2%

Reference: ChEMBL document CHEMBL4825668, “Discovery of Novel Pyrimidine-Based Capsid Assembly Modulators as Potent Anti-HBV Agents” (J Med Chem, 2021)
